From ChEMBL document CHEMBL3792317, “Novel tetrazoloquinoline-rhodanine conjugates: Highly efficient synthesis and biological evaluation” (Bioorg Med Chem Lett, 2016) come the findings set out here.

Broadly, the MIC is the lowest concentration found to suppress growth. A lower MIC goes with a more susceptible organism. In general, GI50 refers to the concentration at which growth is held to half of that of the control. A higher GI50 goes with lower sensitivity of the cells. The term IC90 denotes the concentration at which the effect reaches the 90% level.

In brackets after ≈: the same amount, converted by molar mass. A value given as a limit tells only on which side of the number the result lay.

Series [1] has as its system Aspergillus flavus. Description: Antifungal activity against Aspergillus flavus NCIM 539 after 48 hrs by agar cup plate method. Format: functional. To be noted: NCIM 539, 48 h.
The subject of series [2] is Fusarium oxysporum. Description: Antifungal activity against Fusarium oxysporum NCIM 1332 after 48 hrs by agar cup plate method. In kind it is functional. To be noted: NCIM 1332, 48 h.
Series [3] concerns Candida albicans. Description: Antifungal activity against Candida albicans NCIM 3471 after 48 hrs by agar cup plate method. To be noted: NCIM 3471, 48 h. In kind it is functional.
The test system of series [4] is Aspergillus niger. As to the kind of experiment: Antifungal activity against Aspergillus niger NCIM 1196 after 48 hrs by agar cup plate method. Format: functional. To be noted: NCIM 1196, 48 h.
The test system of series [5] is Cryptococcus neoformans. Description: Antifungal activity against Cryptococcus neoformans NCIM 576 after 48 hrs by agar cup plate method. In kind it is functional. The settings on record: NCIM 576, 48 h.
Series [6] concerns Mycobacterium bovis BCG str. ATCC 35743. Description: Antitubercular activity against dormant Mycobacterium bovis BCG ATCC 35743 at 30 ug/ml incubated for 40 mins by XTT Reduction Menadione Assay. Format: functional. Background: Tetrazolium assays rely on reduction of a dye to a coloured formazan, in cell work by metabolically active cells.
In series [7] the test system is Mycobacterium tuberculosis. Description: Antitubercular activity against Mycobacterium tuberculosis H37Ra ATCC 25177 at 30 ug/ml incubated for 40 mins by XTT Reduction Menadione Assay. In kind it is functional. The settings on record: H37Ra ATCC 25177, 40 min, read-out: GI.
The subject of series [8] is Mycobacterium tuberculosis. As to the kind of experiment: Antitubercular activity against Mycobacterium tuberculosis H37Ra ATCC 25177 incubated for 40 mins by XTT Reduction Menadione Assay. Format: functional. To be noted: H37Ra ATCC 25177, 40 min.
Series [9] deals with Mycobacterium bovis BCG str. ATCC 35743. Description: Antitubercular activity against dormant Mycobacterium bovis BCG ATCC 35743 at 10 ug/ml incubated for 40 mins by XTT Reduction Menadione Assay. Format: functional.
Series [10] has as its system Mycobacterium tuberculosis. As to the kind of experiment: Antitubercular activity against Mycobacterium tuberculosis H37Ra ATCC 25177 at 3 ug/ml incubated for 40 mins by XTT Reduction Menadione Assay. To be noted: H37Ra ATCC 25177, 40 min, read-out: GI. In kind it is functional.
Series [11] concerns Mycobacterium tuberculosis. As to the kind of experiment: Antitubercular activity against Mycobacterium tuberculosis H37Ra ATCC 25177 at 10 ug/ml incubated for 40 mins by XTT Reduction Menadione Assay. To be noted: H37Ra ATCC 25177, 40 min, read-out: GI. In kind it is functional.
Series [12] has as its system Mycobacterium bovis BCG str. ATCC 35743. Description: Antitubercular activity against dormant Mycobacterium bovis BCG ATCC 35743 at 3 ug/ml incubated for 40 mins by XTT Reduction Menadione Assay. In kind it is functional.
Series [13] is described as follows: Antitubercular activity against Mycobacterium bovis BCG ATCC 35743 incubated for 40 mins by XTT Reduction Menadione Assay. Format: functional, Mycobacterium bovis BCG str. ATCC 35743. To be noted: Mycobacterium tuberculosis variant bovis BCG, ATCC 35743, 40 min.
Series [14] concerns A549. As to the kind of experiment: (§1) Cytotoxicity against human A549 cells after 48 hrs by MTT assay. In kind it is cell-based. The settings on record: a549, 48 h.
The nature of series [15]: as §1. Format: cell-based. To be noted: A549 cells.
Series [16] deals with Escherichia coli. Description: Antibacterial activity against Escherichia coli after 18 hrs by broth dilution method. In kind it is functional. (In broth dilution the organism is exposed to a series of concentrations in liquid medium.)
The subject of series [17] is HeLa. As to the kind of experiment: (§2) Cytotoxicity against human HeLa cells after 48 hrs by MTT assay. In kind it is cell-based. To be noted: hela, 48 h.
Series [18] in a line: as §2. In kind it is cell-based. To be noted: HeLa cells.
Series [19] has as its system Pseudomonas fluorescens. Description: Antibacterial activity against Pseudomonas fluorescens after 18 hrs by broth dilution method. Format: functional.
Series [20] is described as follows: Cytotoxicity against human THP1 cells after 48 hrs by MTT assay. Format: cell-based, THP-1.
The subject of series [21] is Staphylococcus aureus. Description: Antibacterial activity against Staphylococcus aureus after 18 hrs by broth dilution method. Format: functional.
The subject of series [22] is Bacillus subtilis. Description: Antibacterial activity against Bacillus subtilis after 18 hrs by broth dilution method. In kind it is functional.
The nature of series [23]: Cytotoxicity against human PANC1 cells after 48 hrs by MTT assay. In kind it is cell-based, PANC-1.
Series [24] concerns Mycobacterium tuberculosis. Description: Antitubercular activity against active Mycobacterium tuberculosis H37Ra ATCC 25177 incubated for 40 mins by XTT Reduction Menadione Assay. To be noted: H37Ra ATCC 25177, 40 min. Format: functional.
Series [25] concerns Mycobacterium tuberculosis. As to the kind of experiment: Antitubercular activity against dormant Mycobacterium tuberculosis H37Ra ATCC 25177 incubated for 40 mins by XTT Reduction Menadione Assay. The settings on record: H37Ra ATCC 25177, 40 min. Format: functional.

For the molecule `Clc1ccc(COC(Cn2ccnc2)c2ccc(Cl)cc2Cl)c(Cl)c1` (centres undefined) [MICONAZOLE], the MIC is 12.5 µg/mL (≈ 30 µM) in series [1]; 25 µg/mL (≈ 60.1 µM) in series [2]; 25 µg/mL (≈ 60.1 µM) in series [3]; 25 µg/mL (≈ 60.1 µM) in [4]; 25 µg/mL (≈ 60.1 µM) in series [5].

Take `Cc1ccc2c(c1)cc(/C=C1\SC(=S)N(CCC(=O)O)C1=O)c1nnnn12`: the values for the growth inhibition (GI) in series [6], in [9] and in [12] were 46.4%, 13.7% and 16.2%, respectively. For the same molecule, in series [7], the inhibition of growth at 30 µg/mL came out at 44.7%. Besides, the MIC stood at 50.5 µg/mL (≈ 126 µM) in [8]; 75 µg/mL (≈ 188 µM) in series [1]; 75 µg/mL (≈ 188 µM) in [2]; 100 µg/mL (≈ 250 µM) in series [3]; 51.3 µg/mL (≈ 128 µM) in series [13]; 25 µg/mL (≈ 62.6 µM) in series [4]. In series [5], this molecule yielded an MIC of 50 µg/mL (≈ 125 µM). Besides, in series [10], the inhibition of growth at 3 µg/mL was determined as 1.75%. The inhibition of growth at 10 µg/mL in series [11] amounted to 31.6%.

Turning to `COc1ccc2c(c1)cc(/C=C1\SC(=S)N(CC(=O)O)C1=O)c1nnnn12`, the growth inhibition (GI) in [6] is 49.8%; in series [9], 32.1%; in [12], -9.36%. For the same molecule, in series [7], the inhibition of growth at 30 µg/mL was determined as 38%. Moreover, the minimal inhibitory concentration (MIC) is more than 250 µg/mL in series [8]; 150 µg/mL (≈ 374 µM) in series [1]; 100 µg/mL (≈ 249 µM) in series [2]; 50 µg/mL (≈ 125 µM) in series [3]; more than 250 µg/mL in series [13]; 50 µg/mL (≈ 125 µM) in series [4]. The molecule also displayed an MIC in series [5] of 150 µg/mL (≈ 374 µM). Also, the inhibition of growth at 3 µg/mL in [10] came to 7.3%. Further, the inhibition of growth at 10 µg/mL in series [11] was 0.62%.

For `Cc1ccc2c(c1)cc(/C=C1\SC(=S)NC1=O)c1nnnn12`, the figures for the growth inhibition (GI) in series [6], in [9] and in series [12] were -32.7%, -28% and 8.79%, respectively. Further, the GI90 in series [14] was 63.3 µg/mL (≈ 193 µM); in series [17], more than 100 µg/mL; in series [20] (thp-1, 48 h), 63.3 µg/mL (≈ 193 µM); in series [23] (panc-1, 48 h) it was more than 100 µg/mL. In addition, the GI50 at 48 h in [15] is 89.2 µg/mL (≈ 273 µM); in [18] it was more than 100 µg/mL; in series [20] (THP1 cells) it was 63.3 µg/mL (≈ 193 µM); in series [23] (PANC1 cells), 42 µg/mL (≈ 128 µM). In series [7], the inhibition of growth at 30 µg/mL was 10.8%. Also, the MIC in series [16] is 167 µg/mL (≈ 511 µM); in series [8], more than 250 µg/mL; in series [19], 223 µg/mL (≈ 682 µM); in series [21], 159 µg/mL (≈ 486 µM); in series [1], 100 µg/mL (≈ 305 µM); in [2], 25 µg/mL (≈ 76.4 µM). The MIC was 174 µg/mL (≈ 532 µM) in series [22]; 150 µg/mL (≈ 458 µM) in [3]; more than 250 µg/mL in series [13]; 25 µg/mL (≈ 76.4 µM) in [4]; 25 µg/mL (≈ 76.4 µM) in series [5]. Further, the inhibition of growth at 3 µg/mL in series [10] was 21.9%. The inhibition of growth at 10 µg/mL in series [11] worked out at 23.7%. Further, the IC90 in series [24] and in series [25] was more than 250 µg/mL in each case.

On to `Cc1cccc2cc(/C=C3\SC(=S)N(CCC(=O)O)C3=O)c3nnnn3c12`, for which the figures for the growth inhibition (GI) in [6], in [9] and in [12] were -8.69%, -11.4% and -8.42%, respectively. Further, in series [7], the inhibition of growth at 30 µg/mL came to 36.9%. Moreover, the MIC is 192 µg/mL (≈ 481 µM) in series [8]; 50 µg/mL (≈ 125 µM) in series [1]; 100 µg/mL (≈ 250 µM) in series [2]; 100 µg/mL (≈ 250 µM) in [3]; 198 µg/mL (≈ 495 µM) in [13]; 75 µg/mL (≈ 188 µM) in series [4]. This molecule also displayed an MIC in series [5] of 50 µg/mL (≈ 125 µM). Also, in [10], the inhibition of growth at 3 µg/mL was -0.39%. Besides, the inhibition of growth at 10 µg/mL in series [11] amounted to 15.5%.

Regarding `O=C(O)CCN1C(=O)/C(=C/c2cc3ccccc3n3nnnc23)SC1=S`, the growth inhibition (GI) stood at 47.9% in series [6], 21.6% in series [9] and 18.8% in series [12]. Moreover, the inhibition of growth at 30 µg/mL in series [7] came out at 48.9%. Besides, the MIC came out at 174 µg/mL (≈ 451 µM) in series [8]; 150 µg/mL (≈ 389 µM) in [1]; 125 µg/mL (≈ 324 µM) in series [2]; 100 µg/mL (≈ 259 µM) in [3]; 182 µg/mL (≈ 473 µM) in series [13]; 150 µg/mL (≈ 389 µM) in series [4]. Besides, the MIC in [5] came to 175 µg/mL (≈ 454 µM). The inhibition of growth at 3 µg/mL in [10] is -1.77%. Also, the inhibition of growth at 10 µg/mL in [11] was 17.7%.
